Where no end group is shown, it is not given here. Ub4 = N-terminal tetraubiquitin moiety
How the values were obtained:
[1] = molecular target: T1, chymotryptic-like activity of the 20S proteasome (Homo sapiens, UniProt P20618+P28074); assay: Example 2 screen: liberation of AMC from LLVY-AMC; format: biochemical; conditions: substrate LLVY-AMC; method of Example 2
T1 construct: 26S proteasome purified from humans and purchased from BioMol; purchased BioMol
Protocol: (§1) 4) 26S proteasome purified from humans and purchased from BioMol;
(§2) 5 μl of compound [30 μM compound in Buffer A+1% DMSO], 5 μl of substrate [30 nM Ub4-pep-C14(29)-Oregon Green and 15 μM LLVY-AMC in Buffer A] and 5 μl enzyme [1.5 nM 26S proteasomes] were mixed in a 384 well plates and incubated at 28° C. for 75 minutes. Reactions were stopped with the addition of […] 20S inhibitor (PR-171) and 4 mM EDTA. Processing of the 20S substrate LLVY-AMC to liberate AMC was determined by measuring the AMC fluorescence [excitation at 340 nm; emission at 465 nm]. Processing of the 19S substrate Ub4-pep-C14(29)-Oregon Green to liberate pep-C14(29)-Oregon Green was determined by measuring the fluorescence polarization of Oregon Green [excitation at 485 nm; emission at 535 nm].
Modulators of the 20S proteasome activity affect liberation of AMC from LLVY-AMC (second non-ubiquitinated substrate) and affect the chymotryptic-like activity of the 20S proteasome.

Rpn11 (26S proteasome) [2] = molecular target: T2, Rpn11 (26S proteasome) (Homo sapiens, UniProt O00487); assay: SDS-PAGE assay of Ub4-peptide substrate proteolysis by 26S proteasome; format: biochemical; conditions: for inhibition of proteolysis of the substrate Ub4-peptide(29) and Ub4-peptide-C14(29) by the 26S proteasome: FIG. 1, 60 nM 26S proteasome, 2 h 37 °C, 5 mM ATPγS, 1 mM OPA, 5 μM Ub-aldehyde, SDS-PAGE
T2 construct: To date, a recombinant form of Rpn11 has not been generated
Protocol: Each peptide substrate further comprises an N-terminal ubiquitin moiety that has 4 Ub repeats (Ub4). […] 2 μg of Ub4-peptide(29) or Ub4-peptide-C14(29) were incubated with 60 nM 26S proteasome in buffer B [50 mM Tris pH 8.0; 10 mM MgCl2; 1 mM DTT; 1 mM ATP] and where indicated 5 mM ATPγS, 1 mM O-phenanthroline (OPA) and 5 μM ubiquitin aldehyde (Ub-aldehyde) in a volume of 20 μl for 2 hours at 37° C. Reactions were stopped by adding 7.5 μl loading dye and boiled at 100° C. for 5 minutes. Reactions were then loaded on an SDS-PAGE gel, reaction products were separated by electrophoresis and bands were visualized with brilliant blue.
Each peptide substrate further comprises an N-terminal ubiquitin moiety that has 4 Ub repeats (Ub4).

Rpn11 = Rpn11 (Saccharomyces cerevisiae, UniProt P43588); conditions: purified 26S proteasome complex; cited from earlier work
19S proteasome = assay: Example 2 screen: liberation of pep-C14(29)-Oregon Green from Ub4-pep-C14(29)-Oregon Green (fluorescence polarization); format: biochemical, human; conditions: method of Example 2
Protocol: as §1, §2
Modulators of the 19S proteasome activity affect liberation of pep-C14(29)-Oregon Green from Ub4-pep-C14(29)-Oregon Green (first ubiquitinated substrate).

Rpn11 (26S proteasome) [3] = molecular target: T2, Rpn11 (26S proteasome); assay: High throughput fluorescence polarization assay of Ub4-peptide(29)-fluorescein proteolysis by 26S proteasome; format: biochemical; conditions: FIG. 5A/5B; 100 nM substrate, 10 nM 26S proteasome, 28 °C, various inhibitor concentrations
Protocol: Various concentrations (as indicated) of Ub4-peptide(29) coupled to Fluorescein-5-maleimide was incubated with 10 nM 26S proteasome in 50 mM Tris pH 8.0; 10 mM MgCl2; 1 mM DTT; 1 mM ATP at 28° C., and the liberation of peptide(29)-fluorescein was measured by fluorescence polarization (excitation at 485 nm; emission at 510 nm).
FIG. 5A illustrates a high throughput (HTP) FP assay that detects O-phenanthroline inhibition of Rpn11 activity. […] 100 nM Ub4-peptide coupled to fluorescein-5-maleimide was incubated with 10 nM 26S proteasome in 50 mM Tris pH 8.0; 10 mM MgCl2; 1 mM DTT; 1 mM ATP at 28° C. and the liberation of peptide was measured by fluorescence polarization (excitation at 485 nm; emission at 510 nm) in the presence of various concentrations of o-phenanthroline (as indicated).
FIG. 5B illustrates that Rpn11 enzymatic activity is unaffected by the presence of a 20S proteasome inhibitor in the HTP FP assay using a peptide substrate of the application. […] 100 nM Ub4-peptide coupled to fluorescein-5-maleimide was incubated with 10 nM 26S proteasome in 50 mM Tris pH 8.0; 10 mM MgCl2; 1 mM DTT; 1 mM ATP at 28° C. and the liberation of peptide was measured by fluorescence polarization (excitation at 485 nm; emission at 510 nm) in the presence of various concentrations of 20S proteasome inhibitor (as indicated).

Ub4-pep-C14(29) = assay: Intrinsic fluorescence of ubistatin A on incubation with Ub4-pep-C14(29); format: binding; conditions: 2.5 μM ubistatin A with 2.5 μM Ub4-pep-C14(29); excitation 350 nm, emission 450 nm
Excerpt: A test agent that binds ubiquitin can affect the binding of ubistatin A (C92) to Ub4-pep-C14(29). This can be determined by measuring the intrinsic fluorescence of ubistatin A (C92) [excitation at 350 nm; emission at 450 nm] with Ub4-pep-C14(29) in the presence or absence of a test agent, which is a competition assay between ubistatin A and the test agent for binding to the ubiquitin.

[4] = molecular target: ubiquitin or polyubiquitin chains (Homo sapiens, UniProt P0CG48); conditions: cited from earlier work
[5] = FIG. 2, 60 nM 26S proteasome from source A
[6] = FIG. 2, 60 nM 26S proteasome from source B

Rpn11, sequence (P43588 whole entry): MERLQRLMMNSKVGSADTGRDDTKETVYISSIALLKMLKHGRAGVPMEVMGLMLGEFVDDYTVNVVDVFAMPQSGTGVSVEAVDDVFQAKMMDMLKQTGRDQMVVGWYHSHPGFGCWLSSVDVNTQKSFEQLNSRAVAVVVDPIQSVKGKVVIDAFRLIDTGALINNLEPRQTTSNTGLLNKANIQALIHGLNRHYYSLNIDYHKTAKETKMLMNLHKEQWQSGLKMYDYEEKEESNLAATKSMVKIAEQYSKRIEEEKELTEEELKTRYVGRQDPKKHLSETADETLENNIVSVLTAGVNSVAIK

With `COc1cccc(OC)c1C(=O)N1CCC(c2nc(-c3ccc(Br)cc3)no2)CC1` [Compound 1] the “effect on the chymotryptic-like activity of the 20S proteasome” value (“effect on the chymotryptic-like activity” below) [1] was “affect”.

In the case of ubiquitin aldehyde, the “inhibition of proteolysis of the substrate Ub4-peptide(29) and Ub4-peptide-C14(29) by the 26S proteasome” value (“inhibition … by the 26S proteasome” below) (Rpn11 (26S proteasome) [2]) is listed as “not” and the “sensitivity of the deubiquitinating activity associated with Rpn11” value (Rpn11) is listed as “insensitivity”.

For `COc1cccc(OC)c1C(=O)N1CCC(c2nc(-c3ccc(C)cc3)no2)CC1` [Compound 2], the “effect on the chymotryptic-like activity” value [1] was “affect”.

In the case of ubiquitin vinylsulphone, the “sensitivity of the deubiquitinating activity associated with Rpn11” value (Rpn11) is listed as “insensitivity”.

For `O=C(c1ccc(CSc2ccc(-c3ccc(-c4ccccc4)cc3)nn2)o1)N1CCCC1` [Compound 4], the “processing of the substrate Ub4-pep-C14(29)-Oregon Green by the 19S proteasome” value (19S proteasome) was “prevents”.

In the case of `c1cnc2c(c1)ccc1cccnc12` [o-phenanthroline, 1,10-phenanthroline], the “inhibition … by the 26S proteasome” value (Rpn11 (26S proteasome) [2]) is reported as “inhibited”, the “inhibition of proteolysis of the substrate Ub4-peptide-C14(14)” value (Rpn11 (26S proteasome) [2]; [5]) is reported as “inhibited” and the “inhibition of proteolysis of the substrate Ub4-peptide-C14(14)” value (Rpn11 (26S proteasome) [2]; [6]) is reported as “not”. For the same compound, the “effect on kinetics of Ub4-peptide(29)-fluorescein proteolysis by the 26S proteasome” value (Rpn11 (26S proteasome) [3]) was “affects”.

In the case of `Nc1ncnc2c1ncn2[C@@H]1O[C@H](COP(=O)(O)OP(=O)(O)OP(O)(O)=S)[C@@H](O)[C@H]1O` [ATPγS], the “inhibition … by the 26S proteasome” value (Rpn11 (26S proteasome) [2]) is reported as “inhibited”, the “inhibition of proteolysis of the substrate Ub4-peptide-C14(14)” value (Rpn11 (26S proteasome) [2]; [5]) is reported as “inhibited” and the “inhibition of proteolysis of the substrate Ub4-peptide-C14(14)” value (Rpn11 (26S proteasome) [2]; [6]) is reported as “not”.

With “Ub4-peptide-C14(14): peptide of SEQ ID NO:15 with S14 changed to C14 and an N-terminal Ub4 moiety; Rpn11 substrate (Ub4-MQIFVKTLRANSSC)” the “effect of changing S14 to C14 on substrate's ability to be recognized and cleaved by Rpn11” value (Rpn11 (26S proteasome) [2]; FIG. 2, SEQ ID NO:15, N-terminal Ub4) was “does not alter”.

In the case of `CC(C)c1cc(OC(=O)c2cc(C(F)(F)F)cc(C(F)(F)F)c2)n(-c2ccc([N+](=O)[O-])cc2)n1` [Compound 3], the “effect on the chymotryptic-like activity” value [1] is reported as “affect”.

In the case of `O=C(Nc1ccc(/C=C/c2ccc(NC(=O)c3cc(S(=O)(=O)O)c4cccnc4c3O)cc2S(=O)(=O)O)c(S(=O)(=O)O)c1)c1cc(S(=O)(=O)O)c2cccnc2c1O` [Ubistatin A], the “intrinsic fluorescence of ubistatin A (C92)” value (Ub4-pep-C14(29)) is given as “increases several fold” and the “intrinsic fluorescence detected from Compound 92 on binding to a protein substrate” value [4] is given as “increases”.
